From patent US9919060B2 (University Court of the University of Dundee, priority 2009, dated 2018)

What was measured:
CYP1B1 = target: T1, CYP1B1 (Homo sapiens, UniProt Q16678); test: CYP1B1 substrate prediction model (Gaussian Kernel weighted k-NN)
T1 sequence (Q16678 1-543): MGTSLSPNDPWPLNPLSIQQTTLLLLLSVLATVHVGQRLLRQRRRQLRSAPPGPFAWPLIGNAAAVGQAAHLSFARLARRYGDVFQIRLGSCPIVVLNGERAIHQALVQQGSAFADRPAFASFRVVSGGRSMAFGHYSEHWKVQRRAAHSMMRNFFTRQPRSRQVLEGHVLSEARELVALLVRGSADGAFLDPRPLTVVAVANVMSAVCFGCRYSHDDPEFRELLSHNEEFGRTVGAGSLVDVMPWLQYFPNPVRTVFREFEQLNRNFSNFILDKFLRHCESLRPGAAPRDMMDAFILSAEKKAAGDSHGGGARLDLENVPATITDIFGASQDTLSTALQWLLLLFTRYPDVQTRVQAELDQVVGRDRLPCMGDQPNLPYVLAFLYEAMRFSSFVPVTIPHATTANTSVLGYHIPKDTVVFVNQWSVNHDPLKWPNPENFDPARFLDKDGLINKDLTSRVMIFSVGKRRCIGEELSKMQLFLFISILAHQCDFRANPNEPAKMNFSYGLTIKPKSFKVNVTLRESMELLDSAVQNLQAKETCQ

CYP1A1 [1] = target: T2, CYP1A1 (Homo sapiens, UniProt P04798); details: TMS 10 nmol dm^−3; without inhibitor 21 ± 3
T2 sequence (P04798 1-512): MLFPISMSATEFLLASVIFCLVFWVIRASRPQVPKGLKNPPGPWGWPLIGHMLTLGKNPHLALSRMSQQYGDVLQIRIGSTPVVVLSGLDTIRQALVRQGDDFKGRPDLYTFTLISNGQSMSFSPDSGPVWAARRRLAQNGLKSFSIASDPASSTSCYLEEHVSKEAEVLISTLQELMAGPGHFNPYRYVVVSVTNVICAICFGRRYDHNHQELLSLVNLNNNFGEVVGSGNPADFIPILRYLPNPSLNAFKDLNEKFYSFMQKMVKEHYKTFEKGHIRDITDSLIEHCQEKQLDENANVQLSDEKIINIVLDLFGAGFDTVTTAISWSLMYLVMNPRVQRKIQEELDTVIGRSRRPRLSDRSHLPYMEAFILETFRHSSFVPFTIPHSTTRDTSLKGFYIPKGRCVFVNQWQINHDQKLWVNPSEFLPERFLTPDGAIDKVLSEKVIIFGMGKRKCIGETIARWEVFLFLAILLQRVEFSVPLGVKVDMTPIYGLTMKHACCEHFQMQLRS

CYP1A1 [2] = target: T2, CYP1A1; type: cell-based; details: TMS 10 nmol dm^−3; without inhibitor 29 ± 4
Description: (§1) Dihydrofolate reductase (DHFR) gene amplification of either human cDNA CYP1A1 or cDNA CYP1B1 in CHO cells was used to achieve high levels of functional enzyme when co-expressed with human P450 reductase (ibid.; Ding S, et al., Biochem J., 356(Pt 2): 613-9, 2001). […] The resulting cell lines were analysed for CYP1A1 or CYP1B1 expression by immunoblotting. […]
(§2) The ethoxyresorufin O-deethylation (EROD) assay is widely used to confirm functional CYP1 activity (Chang T K and Waxman D J, “Enzymatic Analysis of cDNA-Expressed Human CYP1A1, CYP1A2, and CYP1B1 with 7-Ethoxyresorufin as Substrate”, Methods Mol. Biol., 320: 85-90, 2006, the contents of which are incorporated herein by reference). The assay determines O-dealkylation of 7-ethoxyresorufin by CYP1A1, CYP1A2, and CYP1B1 to generate the enzymatic product resorufin, which is monitored continuously by fluorescence emission at 580 nm. […]

[3] = substrate: CCOc1ccc2nc3ccc(=O)cc-3oc2c1; type: cell-based, human; details: other: fluorogenic substrate
Description: as §1, §2

`COc1cc(/C=C/c2ccc(OC)cc2OC)cc(OC)c1` [tetramethoxystilbene] was tested, and the “% CYP1B1 substrate inhibition, accuracy (predicted versus actual)” value (CYP1B1) was 98%, the “Specific activity, CHO/CYP1A1, Luciferin-CEE” value (CYP1A1 [1]) was 20 ± 5 pmol resorufin or luciferin min^−1 mg protein^−1 and the “Specific activity, CHO/CYP1A1, ethoxyresorufin” value (CYP1A1 [2]) was 26 ± 4 pmol resorufin or luciferin min^−1 mg protein^−1.

`O=P1(N(CCCl)CCCl)NCCCO1` (stereo not drawn) [cyclophosphamide] was tested, and the “Toxicity in the CHO cytotoxicity assay at highest concentration” value (wild-type CHO cells) was “non-toxic”.

B1: CYP1A1 (Homo sapiens) (protein)
chain: T2 sequence (P04798 1-512)
With B1 the Km [3] was “Ethoxyresorufin for CYP1A1and CYP1B1 Km ~0.27 μmol dm^−3 μmol dm^−3”.

B2: CYP1B1 (Homo sapiens) (protein)
chain: T1 sequence (Q16678 1-543)
For B2, the Km [3] was “Ethoxyresorufin for CYP1A1and CYP1B1 Km ~0.27 μmol dm^−3 μmol dm^−3”.
